# Data: patent US8324132B2, “Mixture and method for controlling undesired vegetation” (E. I. du Pont de Nemours and Company, priority 2010, dated 2012)
# Assays:
# Type in all cases: in vivo
# [1] = system: bermudagrass (Cynodon dactylon, CYNDA); assay: Test C field plots: bermudagrass phytotoxic response
# Excerpt: (§1) In the following Tests C through E, Colby's equation was used to calculate the expected additive herbicidal effect of nicosulfuron and glyphosate alone and in combination. Colby's equation (S. R. Colby, “Calculating Synergistic and Antagonistic Responses of Herbicide Combinations,” Weeds, 15(1), pp 20-22 (1967)) calculates the expected additive effect of herbicidal mixtures, and for two active ingredients is of the form: Pa+b=Pa+Pb−(PaPb/100) • wherein Pa±b is the percentage effect of the mixture expected from additive contribution of the individual components, • Pa is the observed percentage effect of the first active ingredient at the same use rate as in the mixture, and • Pb is the observed percentage effect of the second active ingredient at the same use rate as in the mixture.
# (§2) For mixtures comprising nicosulfuron, metsulfuron-methyl and glyphosate the expected herbicidal effect was calculated based on the combination of nicosulfuron and metsulfuron-methyl providing observed herbicidal effect Pa and glyphosate providing observed herbicidal effect Pb in the Colby Equation. Plant responses to components Pa and Pb range from zero to 100% where zero is no observed response and 100% is complete response (i.e. plant death). Mixtures of herbicides were tested for their ability to express synergism (enhanced weed control) or antagonism (improved tolerance) at several locations in the United States. In the following Tests glyphosate was provided by the potassium salt of glyphosate. Crop phytotoxic response (% phyto) and weed control efficacy (% control) were visually evaluated using a 0-100 scale where zero is no visible response and 100 is plant death. In the following Tables “DAA” means days after application and “g a.i./ha” means grams active ingredient per hectare.
# (§3) Herbicides and herbicide mixtures were applied to field plots of bermudagrass (Cynodon dactylon, CYNDA) near De Leon, Tex., Yukon, Okla. and Burlington, Okla. to control field sandbur (Cenchrus incertus M. A. Curtis, CCHIN) approximately one week after the bermudagrass had been cut and harvested. All herbicides and herbicide mixtures were formulated in water containing 0.25% (vol/vol) non-ionic surfactant (“NIS” provided by INDUCE®) and applied as a spray mixture to bermudagrass stubble using a backpack sprayer pressurized with CO2.
# [2] = system: field sandbur (Cenchrus incertus M. A. Curtis, CCHIN); assay: Test C field plots: field sandbur control
# Excerpt: as §1, §2, §3
# [3] = system: bermudagrass (Cynodon dactylon, CYNDA); assay: Test D field plots: bermudagrass phytotoxic response
# Excerpt: as §1, §2
# (§4) Herbicides and herbicide mixtures were applied to field plots of bermudagrass (Cynodon dactylon, CYNDA) near Lena, Miss. and Paris, Ark. to control knotroot foxtail (Setaria geniculata [Lam.] Beauv., SETGE) approximately one week after the bermudagrass had been cut and harvested. All herbicides and herbicide mixtures were formulated in water containing 0.25% (vol/vol) non-ionic surfactant (“NIS” provided by INDUCE®) and applied to bermudagrass stubble as a spray mixture using a backpack sprayer pressurized with CO2.
# [4] = system: knotroot foxtail (Setaria geniculata [Lam.] Beauv., SETGE); assay: Test D field plots: knotroot foxtail control
# Excerpt: as §1, §2, §4
# [5] = system: dormant bermudagrass (Cynodon dactylon, CYNDA); assay: Test E field plots: dormant bermudagrass phytotoxic response
# Excerpt: as §1, §2
# (§5) Herbicides and herbicide mixtures were applied to field plots of dormant bermudagrass (Cynodon dactylon, CYNDA) near Eatonton, Ga. on Mar. 20, 2010 and Decatur, Tex. on Mar. 30, 2010 to control rescuegrass (Bromus catharticus Vahl., BROCA). All herbicides and herbicide mixtures were formulated in water containing 1.0% (vol/vol) crop oil concentrate and applied as a spray mixture to bermudagrass using a backpack sprayer pressurized with CO2.
# [6] = system: rescuegrass (Bromus catharticus Vahl., BROCA); assay: Test E field plots: rescuegrass control
# Excerpt: as §1, §2, §5
# [7] = nicosulfuron 39 g a.i./ha, 15 DAA, De Leon, TX
# [8] = nicosulfuron 39 g a.i./ha, 30 DAA, Yukon, OK
# [9] = nicosulfuron 39 g a.i./ha, 90 DAA, Yukon, OK and Burlington, OK
# [10] = nicosulfuron 39 g a.i./ha, 30 DAA, Paris, AR
# [11] = nicosulfuron 39 g a.i./ha, 60 DAA, Paris, AR
# [12] = nicosulfuron 39 g a.i./ha, 30 DAA, Decatur, TX
# [13] = nicosulfuron 39 g a.i./ha, 45 DAA, Eatonton, GA
# [14] = nicosulfuron 39 g a.i./ha, 60 DAA, Decatur, TX
# [15] = glyphosate 96 g a.i./ha, 15 DAA, De Leon, TX
# [16] = glyphosate 96 g a.i./ha, 30 DAA, Yukon, OK
# [17] = glyphosate 96 g a.i./ha, 90 DAA, Yukon, OK and Burlington, OK
# [18] = glyphosate 192 g a.i./ha, 15 DAA, De Leon, TX
# [19] = glyphosate 192 g a.i./ha, 30 DAA, Yukon, OK
# [20] = glyphosate 192 g a.i./ha, 90 DAA, Yukon, OK and Burlington, OK
# [21] = glyphosate 289 g a.i./ha, 15 DAA, De Leon, TX
# [22] = glyphosate 289 g a.i./ha, 30 DAA, Yukon, OK
# [23] = glyphosate 289 g a.i./ha, 90 DAA, Yukon, OK and Burlington, OK
# [24] = glyphosate 96 g a.i./ha, 30 DAA, Paris, AR
# [25] = glyphosate 96 g a.i./ha, 60 DAA, Paris, AR
# [26] = glyphosate 192 g a.i./ha, 15 DAA, Lena, MS
# [27] = glyphosate 192 g a.i./ha, 30 DAA, Paris, AR
# [28] = glyphosate 192 g a.i./ha, 60 DAA, Paris, AR
# [29] = glyphosate 289 g a.i./ha, 15 DAA, Lena, MS
# [30] = glyphosate 289 g a.i./ha, 30 DAA, Paris, AR
# [31] = glyphosate 289 g a.i./ha, 60 DAA, Paris, AR
# [32] = glyphosate 144 g a.i./ha, 30 DAA, Decatur, TX
# [33] = glyphosate 144 g a.i./ha, 45 DAA, Eatonton, GA
# [34] = glyphosate 144 g a.i./ha, 60 DAA, Decatur, TX
# [35] = glyphosate 289 g a.i./ha, 30 DAA, Decatur, TX
# [36] = glyphosate 289 g a.i./ha, 45 DAA, Eatonton, GA
# [37] = glyphosate 289 g a.i./ha, 60 DAA, Decatur, TX
smiles,measurement,setting,value
"COc1cc(OC)nc(NC(=O)NS(=O)(=O)c2ncccc2C(=O)N(C)C)n1 [Nicosulfuron, nicosulfuron]",CYNDA (% phyto) Observed,[1]; [7],5%
same,CYNDA (% phyto) Observed,[1]; [8],10%
same,CYNDA (% phyto) Observed,[1]; [9],0%
same,CCHIN (% control) Observed,[2]; [7],65%
same,CCHIN (% control) Observed,[2]; [8],78%
same,CCHIN (% control) Observed,[2]; [9],88%
same,CYNDA (% phyto) Observed,[3]; [10],3%
same,CYNDA (% phyto) Observed,[3]; [11],0%
same,SETGE (% control) Observed,[4]; [10],28%
same,SETGE (% control) Observed,[4]; [11],10%
same,CYNDA (% phyto) Observed,[5]; [12],0%
same,CYNDA (% phyto) Observed,[5]; [13],0%
same,CYNDA (% phyto) Observed,[5]; [14],0%
same,BROCA (% control) Observed,"[6]; nicosulfuron 39 g a.i./ha, 15 DAA, Eatonton, GA",10%
same,BROCA (% control) Observed,[6]; [12],63%
same,BROCA (% control) Observed,[6]; [13],79%
same,BROCA (% control) Observed,[6]; [14],53%
"O=C(O)CNCP(=O)(O)O [Glyphosate, glyphosate]",CYNDA (% phyto) Observed,[1]; [15],0%
same,CYNDA (% phyto) Observed,[1]; [16],0%
same,CYNDA (% phyto) Observed,[1]; [17],0%
same,CYNDA (% phyto) Observed,[1]; [18],5%
same,CYNDA (% phyto) Observed,[1]; [19],0%
same,CYNDA (% phyto) Observed,[1]; [20],0%
same,CYNDA (% phyto) Observed,[1]; [21],13%
same,CYNDA (% phyto) Observed,[1]; [22],0%
same,CYNDA (% phyto) Observed,[1]; [23],0%
same,CCHIN (% control) Observed,[2]; [15],60%
same,CCHIN (% control) Observed,[2]; [16],2%
same,CCHIN (% control) Observed,[2]; [17],55%
same,CCHIN (% control) Observed,[2]; [18],74%
same,CCHIN (% control) Observed,[2]; [19],18%
same,CCHIN (% control) Observed,[2]; [20],63%
same,CCHIN (% control) Observed,[2]; [21],89%
same,CCHIN (% control) Observed,[2]; [22],35%
same,CCHIN (% control) Observed,[2]; [23],75%
same,CYNDA (% phyto) Observed,[3]; [24],0%
same,CYNDA (% phyto) Observed,[3]; [25],0%
same,CYNDA (% phyto) Observed,[3]; [26],18%
same,CYNDA (% phyto) Observed,[3]; [27],2%
same,CYNDA (% phyto) Observed,[3]; [28],0%
same,CYNDA (% phyto) Observed,[3]; [29],20%
same,CYNDA (% phyto) Observed,[3]; [30],11%
same,CYNDA (% phyto) Observed,[3]; [31],0%
same,SETGE (% control) Observed,[4]; [24],7%
same,SETGE (% control) Observed,[4]; [25],3%
same,SETGE (% control) Observed,[4]; [26],79%
same,SETGE (% control) Observed,[4]; [27],28%
same,SETGE (% control) Observed,[4]; [28],18%
same,SETGE (% control) Observed,[4]; [29],84%
same,SETGE (% control) Observed,[4]; [30],40%
same,SETGE (% control) Observed,[4]; [31],20%
same,CYNDA (% phyto) Observed,[5]; [32],0%
same,CYNDA (% phyto) Observed,[5]; [33],0%
same,CYNDA (% phyto) Observed,[5]; [34],0%
same,CYNDA (% phyto) Observed,[5]; [35],0%
same,CYNDA (% phyto) Observed,[5]; [36],0%
same,CYNDA (% phyto) Observed,[5]; [37],0%
same,BROCA (% control) Observed,"[6]; glyphosate 144 g a.i./ha, 15 DAA, Eatonton, GA",0%
same,BROCA (% control) Observed,[6]; [32],0%
same,BROCA (% control) Observed,[6]; [33],88%
same,BROCA (% control) Observed,[6]; [34],0%
same,BROCA (% control) Observed,"[6]; glyphosate 289 g a.i./ha, 15 DAA, Eatonton, GA",87%
same,BROCA (% control) Observed,[6]; [35],0%
same,BROCA (% control) Observed,[6]; [36],95%
same,BROCA (% control) Observed,[6]; [37],0%
